Test results published in PMC6746705, “Distinct effects of Q925 mutation on intracellular and extracellular Na^+ and K^+ binding to the Na^+, K^+-ATPase” (Scientific Reports, 2019).

System: T1, endogenous COS-1 cell Na+, K+-ATPase
T1 construct: gene ATP1A1; endogenous enzyme in COS-1 plasma membranes
Assay: high-affinity phase of biphasic ouabain inhibition of Na+,K+-ATPase activity in plasma membranes
Type: biochemical

Compound: C[C@@H]1O[C@@H](O[C@H]2C[C@@H](O)[C@]3(CO)[C@H]4[C@H](O)C[C@]5(C)[C@@H](C6=CC(=O)OC6)CC[C@]5(O)[C@@H]4CC[C@]3(O)C2)[C@H](O)[C@H](O)[C@H]1O [ouabain]
- IC50: ~1000 nM
